In the supplement of paper PMC10307832:

How the values were obtained:
Assay in all cases: relative viability (nuclei count vs DMSO), 5 days (fraction); higher = more cells survive
AZ505 + Palbociclib = compound: C1CCC(CC1)N(CCNCCC2=C3C(=C(C=C2)O)NC(=O)CO3)C(=O)CCNCCC4=CC(=C(C=C4)Cl)Cl [AZ505] + CC(=O)c1c(C)c2cnc(Nc3ccc(N4CCNCC4)cn3)nc2n(C2CCCC2)c1=O [Palbociclib] (partner 0.5 µM)
Outline: (§1)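 Lung cancer cell lines were seeded in 1536-well plates and dosed by pin tool the next day, with either a single drug or a fixed anchor-drug dose combined with five library-drug doses (not always all listed) spaced in √10 steps. Five days later, one step fixed the cells and stained their nuclei (final 0.05% Triton X-100, 1% formaldehyde, 1 ug/ml Hoechst), and nuclei were counted on 4× images. Relative viability is the nuclei count in treated wells divided by the count in vehicle wells, and each value is the median of duplicate plates.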

Dactolisib + Palbociclib = compound: Cn1c(=O)n(-c2ccc(C(C)(C)C#N)cc2)c2c3cc(-c4cnc5ccccc5c4)ccc3ncc21 [Dactolisib] + CC(=O)c1c(C)c2cnc(Nc3ccc(N4CCNCC4)cn3)nc2n(C2CCCC2)c1=O [Palbociclib] (partner 0.5 µM)
Outline: as §1

AZ505 + AZD7762 = compound: C1CCC(CC1)N(CCNCCC2=C3C(=C(C=C2)O)NC(=O)CO3)C(=O)CCNCCC4=CC(=C(C=C4)Cl)Cl [AZ505] + NC(=O)Nc1cc(-c2cccc(F)c2)sc1C(=O)N[C@H]1CCCNC1 [AZD7762] (partner 0.2 µM)
Outline: as §1

AZ505 + Luminespib = compound: C1CCC(CC1)N(CCNCCC2=C3C(=C(C=C2)O)NC(=O)CO3)C(=O)CCNCCC4=CC(=C(C=C4)Cl)Cl [AZ505] + CCNC(=O)c1noc(-c2cc(C(C)C)c(O)cc2O)c1-c1ccc(CN2CCOCC2)cc1 [Luminespib] (partner 0.01 µM)
Outline: as §1

Row | Cell Line | relative viability (AZ505 + Palbociclib; first compound 0.08 µM) | relative viability (AZ505 + Palbociclib; first compound 0.253 µM) | relative viability (AZ505 + Palbociclib; first compound 0.8 µM) | relative viability (AZ505 + Palbociclib; first compound 2.53 µM) | relative viability (AZ505 + Palbociclib; first compound 8 µM) | relative viability (Dactolisib + Palbociclib; first compound 0.002 µM) | relative viability (Dactolisib + Palbociclib; first compound 0.006325 µM) | relative viability (Dactolisib + Palbociclib; first compound 0.02 µM) | relative viability (Dactolisib + Palbociclib; first compound 0.06325 µM) | relative viability (Dactolisib + Palbociclib; first compound 0.2 µM) | relative viability (AZ505 + AZD7762; first compound 0.08 µM) | relative viability (AZ505 + AZD7762; first compound 0.253 µM) | relative viability (AZ505 + AZD7762; first compound 0.8 µM) | relative viability (AZ505 + AZD7762; first compound 2.53 µM) | relative viability (AZ505 + AZD7762; first compound 8 µM) | relative viability (AZ505 + Luminespib; first compound 0.08 µM) | relative viability (AZ505 + Luminespib; first compound 0.253 µM) | relative viability (AZ505 + Luminespib; first compound 0.8 µM) | relative viability (AZ505 + Luminespib; first compound 2.53 µM) | relative viability (AZ505 + Luminespib; first compound 8 µM)
1 | NCI-H1915 | 0.528 | 0.528 | 0.478 | 0.44 | 0.473 | 0.609 | 0.496 | 0.557 | 0.317 | 0.262 | 0.707 | 0.753 | 0.7 | 0.727 | 0.716 | 0.769 | 0.928 | 0.75 | 0.783 | 0.986
2 | NCI-H322M | 0.53 | – | 0.473 | 0.489 | 0.503 | 0.487 | 0.476 | 0.415 | 0.387 | 0.415 | 0.629 | – | 0.582 | 0.616 | 0.545 | 0.931 | 0.84 | 0.798 | 0.819 | 0.918
3 | NCI-H2342 | 0.472 | 0.509 | 0.575 | 0.549 | 0.505 | 0.556 | 0.535 | 0.505 | 0.454 | 0.466 | 0.538 | 0.488 | 0.489 | 0.686 | 0.563 | 0.792 | 0.662 | 0.814 | 0.687 | 0.738
4 | NCI-H647 | 0.362 | 0.461 | 0.387 | 0.429 | 0.432 | 0.398 | 0.294 | 0.196 | 0.0842 | 0.0654 | 0.344 | 0.226 | 0.539 | 0.576 | 0.722 | 0.122 | 0.221 | 0.119 | 0.134 | 0.138
5 | NCI-H2170 | 0.38 | 0.39 | 0.379 | 0.401 | 0.434 | 0.379 | 0.385 | 0.316 | 0.205 | 0.167 | 0.825 | 0.901 | 0.821 | 0.92 | 0.966 | 0.637 | 0.606 | 0.512 | 0.714 | 0.835
6 | NCI-H2085 | 0.451 | 0.469 | 0.459 | 0.477 | 0.446 | 0.491 | 0.446 | 0.382 | 0.373 | 0.308 | 0.879 | 0.966 | 0.847 | 0.968 | 0.954 | 0.378 | 0.41 | 0.423 | 0.4 | 0.403
7 | NCI-H727 | 0.598 | 0.687 | 0.625 | 0.552 | 0.674 | – | 0.693 | 0.658 | 0.581 | 0.513 | 0.661 | 0.418 | 0.582 | 0.512 | 0.76 | 0.319 | 0.336 | 0.328 | – | 0.421
8 | NCI-H441 | 0.228 | 0.233 | 0.258 | 0.231 | 0.223 | 0.27 | 0.206 | 0.194 | 0.176 | 0.133 | 0.876 | 1.14 | 1.06 | 1.36 | 1.54 | 0.248 | 0.388 | 0.313 | 0.308 | 0.445
9 | LOU-NH91 | 0.55 | 0.534 | 0.551 | 0.562 | 0.536 | 0.532 | 0.548 | 0.549 | 0.524 | 0.52 | 0.734 | 0.737 | 0.744 | 0.775 | 0.781 | 0.326 | 0.331 | 0.331 | 0.347 | 0.38
10 | NCI-H3122 | 0.212 | 0.228 | 0.18 | 0.19 | 0.197 | 0.18 | 0.198 | 0.173 | 0.16 | 0.137 | 0.923 | 1.01 | 1 | 0.974 | 1.03 | 0.0979 | 0.0993 | 0.0953 | 0.0964 | 0.0997
11 | NCI-H460 | 0.183 | 0.162 | 0.147 | 0.187 | 0.167 | 0.0965 | 0.111 | 0.13 | 0.0706 | 0.0375 | 0.701 | 0.522 | 0.623 | 0.483 | 0.621 | 0.0296 | 0.0436 | 0.0262 | 0.0334 | 0.0373
12 | NCI-H650 | 0.279 | 0.377 | 0.322 | 0.395 | 0.309 | 0.387 | 0.33 | 0.334 | 0.279 | 0.204 | 0.917 | 0.243 | 0.879 | 1.29 | 0.944 | 0.726 | 0.777 | 0.835 | 0.774 | 0.709
13 | NCI-H1793 | 0.293 | 0.271 | 0.3 | 0.307 | 0.347 | 0.289 | 0.212 | 0.21 | 0.212 | 0.19 | 0.466 | 0.513 | 0.574 | 0.404 | 0.407 | 0.199 | 0.173 | 0.179 | – | 0.167
14 | NCI-H1734 | 0.351 | 0.373 | 0.324 | 0.411 | 0.338 | 0.344 | 0.356 | 0.314 | 0.228 | 0.201 | 0.519 | 0.333 | 0.526 | 0.494 | 0.576 | 0.234 | 0.197 | 0.221 | 0.232 | 0.161
15 | LXF-289 | 0.552 | 0.608 | 0.568 | 0.594 | 0.588 | 0.622 | 0.591 | 0.585 | 0.522 | 0.381 | 1.07 | 1.04 | 1.14 | 1.03 | 1.16 | 0.663 | 0.685 | 0.668 | 0.73 | 0.818
16 | H3255 | 0.292 | 0.31 | 0.301 | 0.298 | 0.302 | 0.332 | 0.305 | 0.321 | 0.313 | 0.314 | 0.737 | 0.883 | 0.906 | 0.942 | 0.957 | 0.887 | 0.811 | 0.939 | 0.876 | 0.963
